Measured values published in publication PMC5218480 (PLoS ONE, 2017).

Tested on: MV-4-11 cells
Test: Gene expression microarray analysis (Affymetrix PrimeView) and GSEA
Type: cell-based, human
Parameters: RFU PODN (11730768_x_at) / Fold change /veh PODN (11730768_x_at) / RFU LINC00158 (11744669_a_at) / Fold change /veh LINC00158 (11744669_a_at) / RFU DUSP10 (11751237_a_at) / Fold change /veh DUSP10 (11751237_a_at) / RFU ID3 (11757404_x_at) / Fold change /veh ID3 (11757404_x_at) / RFU PLEKHG5 (11737974_s_at) / Fold change /veh PLEKHG5 (11737974_s_at) / RFU LRRC4B (11730491_at) / Fold change /veh LRRC4B (11730491_at) / RFU GIMAP4 (11747438_a_at) / Fold change /veh GIMAP4 (11747438_a_at) / RFU KRT8 (11758183_x_at) / Fold change /veh KRT8 (11758183_x_at) / RFU CNN1 (11734310_a_at) / Fold change /veh CNN1 (11734310_a_at) / RFU VPS37D (11726825_at) / Fold change /veh VPS37D (11726825_at) / RFU C10orf10 (11716522_x_at) / Fold change /veh C10orf10 (11716522_x_at) / RFU KIR2DL2 /// KIR2DL4 /// KIR2DL5A /// KIR2DL5B /// KIR2DS1 /// KIR2DS2 /// KIR2DS3 /// KIR2DS4 /// KIR3DL3 /// KIR3DL3 /// KIR3DS1 (11738374_at) / Fold change /veh KIR2DL2 /// KIR2DL4 /// KIR2DL5A /// KIR2DL5B /// KIR2DS1 /// KIR2DS2 /// KIR2DS3 /// KIR2DS4 /// KIR3DL3 /// KIR3DL3 /// KIR3DS1 (11738374_at) / RFU C1QL1 (11718748_at) / Fold change /veh C1QL1 (11718748_at) / RFU TMPRSS4 (11747572_a_at) / Fold change /veh TMPRSS4 (11747572_a_at) / RFU HAMP (11756126_x_at) / Fold change /veh HAMP (11756126_x_at) / RFU RNFT2 (11725882_a_at) / Fold change /veh RNFT2 (11725882_a_at) / RFU NR4A2 (11747474_a_at) / Fold change /veh NR4A2 (11747474_a_at) / RFU ABCC12 (11746883_a_at) / Fold change /veh ABCC12 (11746883_a_at) / RFU TMEM136 (11760407_x_at) / Fold change /veh TMEM136 (11760407_x_at) / RFU CLDN22 /// WWC2 (11732394_at) / Fold change /veh CLDN22 /// WWC2 (11732394_at) / RFU HLA-DPB1 (11760878_x_at) / Fold change /veh HLA-DPB1 (11760878_x_at) / RFU SPINT1 (11716480_a_at) / Fold change /veh SPINT1 (11716480_a_at) / RFU GAP43 (11754022_s_at) / Fold change /veh GAP43 (11754022_s_at) / RFU A4GNT (11735810_at) / Fold change /veh A4GNT (11735810_at) / RFU PRB3 (11715151_x_at) / Fold change /veh PRB3 (11715151_x_at) / RFU TUBB4B (11761932_at) / Fold change /veh TUBB4B (11761932_at) / RFU CAPN14 (11732068_a_at) / Fold change /veh CAPN14 (11732068_a_at) / RFU TMCC2 (11721928_a_at) / Fold change /veh TMCC2 (11721928_a_at) / RFU IRGQ (11745062_a_at) / Fold change /veh IRGQ (11745062_a_at) / RFU FAM174B (11720279_a_at) / Fold change /veh FAM174B (11720279_a_at) / RFU TMPRSS4 (11748680_a_at) / Fold change /veh TMPRSS4 (11748680_a_at) / RFU FAM212B (11763350_a_at) / Fold change /veh FAM212B (11763350_a_at) / RFU PLEKHG5 (11743358_a_at) / Fold change /veh PLEKHG5 (11743358_a_at) / RFU ZSCAN30 (11745921_a_at) / Fold change /veh ZSCAN30 (11745921_a_at) / RFU CMKLR1 (11741424_a_at) / Fold change /veh CMKLR1 (11741424_a_at) / RFU LOC101060620 /// MAPK8IP1 (11723275_at) / Fold change /veh LOC101060620 /// MAPK8IP1 (11723275_at) / RFU SPTSSB (11747773_x_at) / Fold change /veh SPTSSB (11747773_x_at) / RFU PRSS12 (11739890_at) / Fold change /veh PRSS12 (11739890_at) / RFU BIN1 (11741810_x_at) / Fold change /veh BIN1 (11741810_x_at) / RFU WNT11 (11732464_a_at) / Fold change /veh WNT11 (11732464_a_at) / RFU C10orf10 (11716521_a_at) / Fold change /veh C10orf10 (11716521_a_at) / RFU C5orf56 (11738089_at) / Fold change /veh C5orf56 (11738089_at) / RFU CYB561 (11721691_x_at) / Fold change /veh CYB561 (11721691_x_at) / RFU ANKRD19P (11752326_a_at) / Fold change /veh ANKRD19P (11752326_a_at) / RFU OR2T12 /// OR2T33 /// OR2T8 (11738714_s_at) / Fold change /veh OR2T12 /// OR2T33 /// OR2T8 (11738714_s_at) / RFU VCAN (11748164_a_at) / Fold change /veh VCAN (11748164_a_at) / RFU JSRP1 (11732532_at) / Fold change /veh JSRP1 (11732532_at) / RFU KRTAP10-11 (11738290_x_at) / Fold change /veh KRTAP10-11 (11738290_x_at) / RFU MYO3A (11730013_a_at) / Fold change /veh MYO3A (11730013_a_at) / RFU EBF3 (11725865_a_at) / Fold change /veh EBF3 (11725865_a_at) / RFU CAMK2N1 (11719241_x_at) / Fold change /veh CAMK2N1 (11719241_x_at) / RFU C5orf56 (11738088_a_at) / Fold change /veh C5orf56 (11738088_a_at) / RFU OLFML3 (11715873_a_at) / Fold change /veh OLFML3 (11715873_a_at) / RFU LOC100653217 /// NTM (11731650_a_at) / Fold change /veh LOC100653217 /// NTM (11731650_a_at) / RFU MAPK11 (11762145_a_at) / Fold change /veh MAPK11 (11762145_a_at) / RFU FIZ1 (11724087_x_at) / Fold change /veh FIZ1 (11724087_x_at) / RFU OASL (11726364_x_at) / Fold change /veh OASL (11726364_x_at) / RFU SOX15 (11748057_x_at) / Fold change /veh SOX15 (11748057_x_at) / RFU CD79A (11719716_a_at) / Fold change /veh CD79A (11719716_a_at) / RFU HIST1H1D (11736915_at) / Fold change /veh HIST1H1D (11736915_at) / RFU CASKIN2 (11723855_a_at) / Fold change /veh CASKIN2 (11723855_a_at) / RFU LOC730098 (11760151_x_at) / Fold change /veh LOC730098 (11760151_x_at) / RFU OR4N2 (11742367_at) / Fold change /veh OR4N2 (11742367_at) / RFU PRRT2 (11749266_a_at) / Fold change /veh PRRT2 (11749266_a_at) / RFU SNX32 (11753110_a_at) / Fold change /veh SNX32 (11753110_a_at) / RFU CDHR5 (11726645_a_at) / Fold change /veh CDHR5 (11726645_a_at) / RFU RCAN1 (11760418_a_at) / Fold change /veh RCAN1 (11760418_a_at) / RFU FAM167A (11723789_a_at) / Fold change /veh FAM167A (11723789_a_at) / RFU FAM26E (11764081_at) / Fold change /veh FAM26E (11764081_at) / RFU ISYNA1 (11749810_s_at) / Fold change /veh ISYNA1 (11749810_s_at) / RFU ACY1 (11761880_at) / Fold change /veh ACY1 (11761880_at) / RFU 11764098_at / Fold change /veh 11764098_at / RFU SAMD14 (11745864_x_at) / Fold change /veh SAMD14 (11745864_x_at) / RFU NPB (11741838_a_at) / Fold change /veh NPB (11741838_a_at) / RFU TMPRSS6 (11731388_a_at) / Fold change /veh TMPRSS6 (11731388_a_at) / RFU KRTAP10-2 (11738614_at) / Fold change /veh KRTAP10-2 (11738614_at) / RFU ARHGAP8 /// PRR5-ARHGAP8 (11727945_x_at) / Fold change /veh ARHGAP8 /// PRR5-ARHGAP8 (11727945_x_at) / RFU KRTAP5-7 /// NADSYN1 (11734609_at) / Fold change /veh KRTAP5-7 /// NADSYN1 (11734609_at) / RFU RASL12 (11751679_a_at) / Fold change /veh RASL12 (11751679_a_at) / RFU CDKN2B (11736163_a_at) / Fold change /veh CDKN2B (11736163_a_at) / RFU PRF1 (11729649_at) / Fold change /veh PRF1 (11729649_at) / RFU, ZNF638 /// ZNF638-IT1 / Fold change vs veh, ZNF638 /// ZNF638-IT1 / RFU, PANK3 / Fold change vs veh, PANK3 / RFU, SH3YL1 / Fold change vs veh, SH3YL1 / RFU, ZEB2 / Fold change vs veh, ZEB2 / RFU, NRIP1 / Fold change vs veh, NRIP1 / RFU, PTTG1IP / Fold change vs veh, PTTG1IP / RFU, CAPN2 / Fold change vs veh, CAPN2 / RFU, MED14 / Fold change vs veh, MED14 / RFU, SNORA58 / Fold change vs veh, SNORA58 / RFU, C1orf63 / Fold change vs veh, C1orf63 / RFU, LRRFIP1 / Fold change vs veh, LRRFIP1 / RFU, NDUFAF7 / Fold change vs veh, NDUFAF7 / RFU, SLC12A2 / Fold change vs veh, SLC12A2 / RFU, IBTK / Fold change vs veh, IBTK / RFU, ESF1 / Fold change vs veh, ESF1 / Fold change vs veh, TMEM50B / RFU, TAOK1 / Fold change vs veh, TAOK1 / RFU, ACBD3 / Fold change vs veh, ACBD3 / RFU, TMA16 / Fold change vs veh, TMA16 / RFU, RWDD3 / Fold change vs veh, RWDD3 / RFU, BCAT1 / Fold change vs veh, BCAT1 / RFU, EDEM3 / Fold change vs veh, EDEM3 / RFU, TMEM33 / Fold change vs veh, TMEM33 / RFU, WDR75 / Fold change vs veh, WDR75 / RFU, AHCTF1 / Fold change vs veh, AHCTF1 / RFU, TFRC / Fold change vs veh, TFRC / RFU, ZDHHC17 / Fold change vs veh, ZDHHC17 / RFU, NOM1 / Fold change vs veh, NOM1 / RFU, ARL8B / Fold change vs veh, ARL8B / RFU, ZBTB11 / Fold change vs veh, ZBTB11 / RFU, TAMM41 / Fold change vs veh, TAMM41 / RFU, KIAA1704 /// LOC100996395 / Fold change vs veh, KIAA1704 /// LOC100996395 / RFU, ING1 / Fold change vs veh, ING1 / RFU, TRMT61B / Fold change vs veh, TRMT61B / RFU, FUBP3 / Fold change vs veh, FUBP3 / RFU, TP53 / Fold change vs veh, TP53 / RFU, TNKS2 / Fold change vs veh, TNKS2 / RFU, ZFP14 / Fold change vs veh, ZFP14 / RFU, ACTR2 / Fold change vs veh, ACTR2 / RFU, PPP3R1 / Fold change vs veh, PPP3R1 / RFU, PIK3R1 / Fold change vs veh, PIK3R1 / RFU, HNRNPA1 / Fold change vs veh, HNRNPA1 / RFU, RNF170 / Fold change vs veh, RNF170 / RFU, ZNF28 / Fold change vs veh, ZNF28 / RFU, RNGTT / Fold change vs veh, RNGTT / RFU, OGT / Fold change vs veh, OGT / RFU, BRD1 / Fold change vs veh, BRD1 / RFU, MARS / Fold change vs veh, MARS / RFU, ZNF655 / Fold change vs veh, ZNF655 / RFU, FAHD1 / Fold change vs veh, FAHD1 / RFU, BDP1 / Fold change vs veh, BDP1 / RFU, LRRCC1 / Fold change vs veh, LRRCC1 / RFU, ARID1A / Fold change vs veh, ARID1A / RFU, ZNF146 / Fold change vs veh, ZNF146 / RFU, ZNF330 / Fold change vs veh, ZNF330 / RFU, GPN3 / Fold change vs veh, GPN3 / RFU, C9orf123 / Fold change vs veh, C9orf123 / RFU, N4BP2L2 / Fold change vs veh, N4BP2L2 / RFU, ARFIP1 / Fold change vs veh, ARFIP1 / RFU, FAM179B / Fold change vs veh, FAM179B / RFU, BCL10 / Fold change vs veh, BCL10 / RFU, UHRF1BP1L / Fold change vs veh, UHRF1BP1L / RFU, BET1 / Fold change vs veh, BET1 / RFU, CNOT2 / Fold change vs veh, CNOT2 / RFU, ZNF268 / Fold change vs veh, ZNF268 / Fold change vs veh, ZNF507 / RFU, DGCR2 / Fold change vs veh, DGCR2 / RFU, WDSUB1 / Fold change vs veh, WDSUB1 / Fold change vs veh, HSP90B1 /// MIR3652 / RFU, ADSS / Fold change vs veh, ADSS / RFU, GK / Fold change vs veh, GK / RFU, ZNF148 / Fold change vs veh, ZNF148 / RFU, TAF9 / Fold change vs veh, TAF9 / RFU, SLC1A5 / Fold change vs veh, SLC1A5 / RFU, SLMO2 / Fold change vs veh, SLMO2 / RFU, ABCC4 / Fold change vs veh, ABCC4 / RFU, LOC101060439 /// RAP1B / Fold change vs veh, LOC101060439 /// RAP1B / RFU, RFX7 / Fold change vs veh, RFX7 / RFU, GTPBP10 / Fold change vs veh, GTPBP10 / RFU, CNEP1R1 / Fold change vs veh, CNEP1R1 / RFU, BIVM-ERCC5 /// ERCC5 / Fold change vs veh, BIVM-ERCC5 /// ERCC5 / RFU, ILF3 / Fold change vs veh, ILF3 / RFU 11762660_at / Fold change /veh 11762660_at / RFU VCAN (11757783_s_at) / Fold change /veh VCAN (11757783_s_at) / RFU DDX43 (11728927_at) / Fold change /veh DDX43 (11728927_at) / RFU KRT8 (11758188_x_at) / Fold change /veh KRT8 (11758188_x_at) / RFU NKD1 (11759106_at) / Fold change /veh NKD1 (11759106_at) / RFU SRD5A1 (11742802_a_at) / Fold change /veh SRD5A1 (11742802_a_at) / RFU TPSAB1 /// TPSB2 (11721975_s_at) / Fold change /veh TPSAB1 /// TPSB2 (11721975_s_at) / RFU GSTM3 (11746129_a_at) / Fold change /veh GSTM3 (11746129_a_at) / RFU IL23R (11737362_x_at) / Fold change /veh IL23R (11737362_x_at) / RFU TMEM51 (11727254_a_at) / Fold change /veh TMEM51 (11727254_a_at) / RFU PIWIL2 (11732686_x_at) / Fold change /veh PIWIL2 (11732686_x_at) / RFU ORM1 (11744905_x_at) / Fold change /veh ORM1 (11744905_x_at) / RFU CCDC152 (11743942_at) / Fold change /veh CCDC152 (11743942_at) / RFU ECM1 (11717891_a_at) / Fold change /veh ECM1 (11717891_a_at) / RFU IL23R (11748794_a_at) / Fold change /veh IL23R (11748794_a_at) / RFU TNFAIP8L3 (11732012_x_at) / Fold change /veh TNFAIP8L3 (11732012_x_at) / RFU MBOAT4 (11741988_at) / Fold change /veh MBOAT4 (11741988_at) / RFU 11764193_at / Fold change /veh 11764193_at / RFU TMEM53 (11763286_at) / Fold change /veh TMEM53 (11763286_at) / RFU MAGEB2 (11727129_at) / Fold change /veh MAGEB2 (11727129_at) / RFU TMEM200A (11744735_a_at) / Fold change /veh TMEM200A (11744735_a_at) / RFU CCDC152 (11751479_a_at) / Fold change /veh CCDC152 (11751479_a_at) / RFU FAM211A (11726209_a_at) / Fold change /veh FAM211A (11726209_a_at) / RFU RGS16 (11746705_a_at) / Fold change /veh RGS16 (11746705_a_at) / RFU VCAN (11755009_s_at) / Fold change /veh VCAN (11755009_s_at) / RFU RHOB (11743442_s_at) / Fold change /veh RHOB (11743442_s_at) / RFU RGS16 (11720943_a_at) / Fold change /veh RGS16 (11720943_a_at) / RFU RGS16 (11720944_at) / Fold change /veh RGS16 (11720944_at) / RFU, VPS4B / Fold change vs veh, VPS4B / RFU, CREB1 / Fold change vs veh, CREB1 / RFU, DNAJC13 / Fold change vs veh, DNAJC13 / RFU, GNAQ / Fold change vs veh, GNAQ / RFU, CDK5R1 / Fold change vs veh, CDK5R1 / RFU, ZRANB3 / Fold change vs veh, ZRANB3 / RFU, CUL4A / Fold change vs veh, CUL4A / RFU, CCNY / Fold change vs veh, CCNY / RFU, UFL1 / Fold change vs veh, UFL1 / RFU, COG3 / Fold change vs veh, COG3 / RFU, DIAPH2 / Fold change vs veh, DIAPH2 / RFU, SKA2 / Fold change vs veh, SKA2 / RFU, AFF3 / Fold change vs veh, AFF3 / RFU, LMF1 / Fold change vs veh, LMF1 / RFU, IPO11 / Fold change vs veh, IPO11 / RFU, DFFB / Fold change vs veh, DFFB / RFU, FOXP1 / Fold change vs veh, FOXP1 / RFU, CARD8 / Fold change vs veh, CARD8 / RFU, STRN3 / Fold change vs veh, STRN3 / RFU, ADK / Fold change vs veh, ADK / RFU, RASSF2 / Fold change vs veh, RASSF2 / RFU, WIPF1 / Fold change vs veh, WIPF1 / RFU, LARP1B / Fold change vs veh, LARP1B / RFU, RASA1 / Fold change vs veh, RASA1 / RFU, RB1 / Fold change vs veh, RB1 / RFU, PPFIA1 / Fold change vs veh, PPFIA1 / RFU, MAT2A / Fold change vs veh, MAT2A / RFU, CCT5 / Fold change vs veh, CCT5 / RFU, WDR92 / Fold change vs veh, WDR92 / RFU, CUX1 / Fold change vs veh, CUX1 / RFU, TTC7A / Fold change vs veh, TTC7A / RFU, TMEM135 / Fold change vs veh, TMEM135 / RFU, DEPTOR / Fold change vs veh, DEPTOR / RFU, CPM / Fold change vs veh, CPM / RFU, DNAJB6 / Fold change vs veh, DNAJB6 / RFU, CACNA2D3 / Fold change vs veh, CACNA2D3 / RFU, DTX4 / Fold change vs veh, DTX4 / RFU, TFCP2 / Fold change vs veh, TFCP2 / RFU, GMCL1 /// GMCL1P1 / Fold change vs veh, GMCL1 /// GMCL1P1 / RFU, AEBP2 / Fold change vs veh, AEBP2 / RFU, SNHG1 /// SNORD22 /// SNORD25 /// SNORD26 /// SNORD27 /// SNORD28 /// SNORD29 /// SNORD31 / Fold change vs veh, SNHG1 /// SNORD22 /// SNORD25 /// SNORD26 /// SNORD27 /// SNORD28 /// SNORD29 /// SNORD31 / Fold change (Aza/veh), C12orf56 (ProbeSet 11735607_a_at) / Fold change (ACY-1035/veh), C12orf56 (ProbeSet 11735607_a_at) / Fold change (Aza/veh), FGFR1OP (ProbeSet 11751329_s_at) / Fold change (ACY-1035/veh), FGFR1OP (ProbeSet 11751329_s_at) / Fold change (Aza/veh), VPS36 (ProbeSet 11739960_a_at) / Fold change (ACY-1035/veh), VPS36 (ProbeSet 11739960_a_at) / RFU SYPL1 (11715823_x_at) / Fold change /veh SYPL1 (11715823_x_at) / RFU IGFBP7 (11715501_s_at) / Fold change /veh IGFBP7 (11715501_s_at) / RFU REEP3 (11722064_at) / Fold change /veh REEP3 (11722064_at) / RFU IGLL1 (11728026_x_at) / Fold change /veh IGLL1 (11728026_x_at): dose or concentration left out as unconfirmed
Conditions: MV-4-11 cells, 48 hours

For `Nc1ncn([C@@H]2O[C@H](CO)[C@@H](O)[C@H]2O)c(=O)n1` [azacitidine], the “Fold change /veh SNX32 (11753110_a_at)” value was 1.11.
